Patent publication US10906977B2, “Enhancing the therapeutic activity of immune checkpoint inhibitor” (Maine Medical Center Research Institute, priority 2016, dated 2021)

Assays:
YAP = test: Nuclear YAP in P-2 stimulated endothelial cells with Src or P38MAPK inhibitor; assay type: cell-based, human; settings: inhibitor 10 μM; as compared to control; FIG. 8E, 8F
Protocol: (§1) Endothelial cells (HUVECs or HRMVECs) were incubated in serum free media with 1 mM MgCl2, 0.2 mM MnCl2 in the presence of a Src inhibitor, PP2, (10 μM) a P38MAPK inhibitor, SB202190 (10 μM) or vehicle only (DMSO) for 10 min at 37° C. Treated cells were then seeded on to immobilized P-1 and P-2 and lysates were collected at 15 min.
(§2) Whole cell and CAM tissue lysates were collected in RIPA buffer supplemented with 1× protease inhibitor and 1× phosphatase inhibitor and were run on polyacrylamide gels using denaturing conditions. Prior to loading the gels, 6× sample buffer was added to each of the lysates (final concentration 1×) and boiled for five minutes. Twenty to 50 μg of total protein were loaded into each lane. […] Gels were run at 60 volts (v) until the dye front passed through the stacking gel, and then the voltage was increased to 100V for the remainder of the separation. Precision Plus protein standards (Bio-Rad) were used to visualize migration. Protein was transferred to nitrocellulose membranes using a wet tank system and blocked for 1 h using 10% non-fat dried milk in tris-buffered saline with 0.01% Tween-20 (TBS-T). […] Membranes were washed 3 times in TBS-T for five minutes. Blots were then incubated with HRP conjugated secondary antibodies (1:15000) in 1% non-fat milk in TBS-T for 1 h. […] Western blot bands were quantified using Image J software based on pixel intensity.

[1] = test system: chick chorioallantoic membrane (CAM); test: Chick CAM angiogenesis induced by soluble RGD collagen peptides; assay type: in vivo; settings: for induction of CAM angiogenesis as compared to no treatment: soluble peptide, FIG. 5C
Protocol: (§3) The chick chorioallantoic membrane (CAM) assays were carried out with some modifications (19). For all experiments CAMs of 10-day-old chick embryos obtained from Charles River (North Franklin, Conn.) were separated from the shell membrane. Filter discs either non-treated (inflammation assays) pretreated (angiogenesis assays) with cortisone acetate (3.0 mg/ml) containing RPMI only or FGF-2 (40 ng). CAMs were either non-treated or treated topically with Mab XL313, XL166 or a non-specific control antibody (10 μg/embryo every 24 h for three consecutive treatments). […] At the end of the incubation period the embryos were sacrificed and the CAM tissues were analyzed. Angiogenesis was quantified by counting the number of angiogenic branching blood vessels within the area of the filter disc. The angiogenic index was determined by subtracting the mean number of blood vessel branch points from untreated CAMs from each experimental condition. Eight to twelve embryos were used per condition and experiments were repeated at least three times.

β3-integrin = biological target: T1, β3-integrin (Homo sapiens, UniProt P05106+P06756); test: β3-integrin phosphorylation in endothelial cells attached to collagen peptides (Western blot); assay type: cell-based; settings: Src inhibitor PP2 10 μM; FIG. 7E
T1 construct: endogenous in cells; host or cells: HUVEC
T1 sequence (P05106 27-788): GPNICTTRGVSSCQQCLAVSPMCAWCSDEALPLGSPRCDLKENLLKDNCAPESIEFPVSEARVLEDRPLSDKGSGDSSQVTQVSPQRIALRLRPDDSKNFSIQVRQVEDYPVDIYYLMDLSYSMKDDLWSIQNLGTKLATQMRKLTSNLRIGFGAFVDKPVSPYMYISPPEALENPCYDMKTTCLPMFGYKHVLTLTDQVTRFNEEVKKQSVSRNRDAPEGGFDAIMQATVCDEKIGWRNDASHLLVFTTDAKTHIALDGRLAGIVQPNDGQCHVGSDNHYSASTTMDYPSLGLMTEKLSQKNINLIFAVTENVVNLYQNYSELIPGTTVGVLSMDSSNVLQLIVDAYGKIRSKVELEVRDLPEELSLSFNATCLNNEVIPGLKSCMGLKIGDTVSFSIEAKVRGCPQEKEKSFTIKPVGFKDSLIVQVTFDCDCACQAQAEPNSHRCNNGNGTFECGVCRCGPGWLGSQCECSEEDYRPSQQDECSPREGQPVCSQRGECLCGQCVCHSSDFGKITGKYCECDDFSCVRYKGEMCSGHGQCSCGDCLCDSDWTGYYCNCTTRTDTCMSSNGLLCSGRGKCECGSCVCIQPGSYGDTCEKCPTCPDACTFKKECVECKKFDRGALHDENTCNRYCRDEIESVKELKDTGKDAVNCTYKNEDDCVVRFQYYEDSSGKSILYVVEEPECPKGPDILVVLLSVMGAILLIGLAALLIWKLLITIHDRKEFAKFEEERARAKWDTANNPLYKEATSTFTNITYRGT
T1 sequence (P06756 31-889 limits assumed): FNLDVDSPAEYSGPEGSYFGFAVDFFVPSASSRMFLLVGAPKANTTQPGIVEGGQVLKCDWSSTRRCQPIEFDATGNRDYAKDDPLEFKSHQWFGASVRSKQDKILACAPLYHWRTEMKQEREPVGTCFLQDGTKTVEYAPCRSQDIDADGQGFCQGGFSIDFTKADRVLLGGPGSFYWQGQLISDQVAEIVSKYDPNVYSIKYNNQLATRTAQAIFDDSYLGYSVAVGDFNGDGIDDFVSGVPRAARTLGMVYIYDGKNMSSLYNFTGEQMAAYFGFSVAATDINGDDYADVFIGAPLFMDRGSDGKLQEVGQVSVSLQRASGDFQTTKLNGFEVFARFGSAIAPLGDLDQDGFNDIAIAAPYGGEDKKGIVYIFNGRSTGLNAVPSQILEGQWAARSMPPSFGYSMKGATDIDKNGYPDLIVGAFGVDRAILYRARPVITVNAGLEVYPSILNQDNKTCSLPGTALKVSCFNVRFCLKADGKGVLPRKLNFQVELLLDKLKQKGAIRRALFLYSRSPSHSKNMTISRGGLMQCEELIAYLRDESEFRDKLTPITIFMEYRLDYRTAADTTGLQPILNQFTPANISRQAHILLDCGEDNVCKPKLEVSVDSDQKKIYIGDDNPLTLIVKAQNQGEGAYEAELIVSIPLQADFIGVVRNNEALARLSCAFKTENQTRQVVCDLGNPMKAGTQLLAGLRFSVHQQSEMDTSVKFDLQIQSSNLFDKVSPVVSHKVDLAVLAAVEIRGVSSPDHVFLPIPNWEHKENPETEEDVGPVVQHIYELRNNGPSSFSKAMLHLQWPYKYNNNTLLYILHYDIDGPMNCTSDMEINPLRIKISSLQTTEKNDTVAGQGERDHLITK
T1 sequence (P06756 891-1048 partner limits assumed): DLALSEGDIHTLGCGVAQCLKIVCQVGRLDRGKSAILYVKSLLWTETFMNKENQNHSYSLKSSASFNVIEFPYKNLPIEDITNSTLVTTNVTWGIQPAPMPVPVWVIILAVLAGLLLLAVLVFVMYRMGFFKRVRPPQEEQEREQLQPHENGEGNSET
Protocol: as §1, §2

P38MAPK = test: Phosphorylated P38MAPK in HUVECs attached to collagen peptides (Western blot); assay type: cell-based, human; settings: Src inhibitor PP2 10 μM; FIG. 7F
Protocol: as §1, §2

HRMVEC = test: Endothelial cell proliferation with soluble RGD peptides; assay type: cell-based, human; settings: 100 ng/ml, 24 hours; FIG. 8D
Protocol: (§4) HUVECs (WT, shYAP1 or control transfected) or HRMVECs were plated at 2,000 cells per well with complete EGM-2 media containing 2.0% FBS in the absence or presence of P-1, P-2 or P-C (100 ng/ml) and allowed to grow for 24 hours. Cell growth was monitored using a BrdU or MMT assay kits according to manufacturer's instructions. All assays were completed at least three times in triplicate wells.

HUVEC = test: as above; assay type: cell-based, human; settings: 100 ng/ml, 24 hours; FIG. 8C
Protocol: as §4

[2] = test system: endothelial cells transduced with YAP specific or non-specific shRNAs; test: Growth of shRNA transduced endothelial cells with soluble RGD peptides; assay type: cell-based, human; settings: non-specific shRNA; FIG. 8G
Protocol: as §4
Raw cells were transfected with 1 μg of HuSH shRNA plasmids for collagen type I, alpha 2 using Amaxa cell line nucleofector kit V (program #T024). Constructs expressing 21-nucleotide short hairpin RNAs (shRNA) targeting human YAP (shYAP) or non-targeting control (shNT, Sigma-Aldrich, SHC002) were used. Humantargeting shYAP1 lentiviral shRNA was obtained from the Thermo Scientific RNAi consortium (TRCN0000107625). Constructs were packaged into lentivirus, pseudotyped with the vesicular stomatitis virus glycoprotein. Transduction was performed by incubating cells with lentivirus, and stably transduced cells were subsequently used for studies. All cell lines were verified by morphology and mouse and human YAP-specific PCR. […] Endothelial cells were certified mycoplasma-negative by PCR (Lonza), and primary cell cultures were used within the indicated passage numbers. Cells were transduced and selected using puromycin.

[3] = test system: chick chorioallantoic membrane (CAM); test: Chick CAM inflammation induced by soluble RGD collagen peptides; assay type: in vivo; settings: FIG. 5D
Protocol: as §3

Fak = Fak phosphorylation in endothelial cells attached to collagen peptides; assay type: cell-based, human; settings: serum free conditions
Protocol: Whole cell and CAM tissue lysates were collected in RIPA buffer supplemented with 1× protease inhibitor and 1× phosphatase inhibitor and were run on polyacrylamide gels using denaturing conditions. Prior to loading the gels, 6× sample buffer was added to each of the lysates (final concentration 1×) and boiled for five minutes. Twenty to 50 μg of total protein were loaded into each lane. For detection of proteins larger than 50 kD, 10% gels were used; for proteins smaller than 50 kD 15% gels were used. Gels were run at 60 volts (v) until the dye front passed through the stacking gel, and then the voltage was increased to 100V for the remainder of the separation. Precision Plus protein standards (Bio-Rad) were used to visualize migration. Protein was transferred to nitrocellulose membranes using a wet tank system and blocked for 1 h using 10% non-fat dried milk in tris-buffered saline with 0.01% Tween-20 (TBS-T). […] Western blot bands were quantified using Image J software based on pixel intensity.

[4] = test system: human microvascular endothelial cells (HMVEC); test: Cell adhesion to immobilized collagen RGD peptides; assay type: cell-based; settings: peptide immobilized 100 μg/ml
Protocol: (§5) RGD peptides (P-1, P-2, P-3, P-4, P-5, and P-C) were immobilized (100 μg/ml) to wells. HUVEC, HMVEC, HRMVEC, and HDF cells were suspended in adhesion buffer (RPMI containing 1 mM MgCl2, 0.2 mM MnCl2 and 0.5% BSA) and 1×10^5 cells were seeded into the wells in the presence or absence of P4C10, LM609, P1F6 or control antibodies (100 μg/ml). Cells were allowed to attach for 25 min at 37° C. Media containing non-attached cells was aspirated and attached cells were washed with PBS and stained with crystal violet. Cell adhesion was quantified by measuring the optical density of eluted dye. Adhesion assays were completed at least three times with triplicate wells.

[5] = test system: human retinal microvascular endothelial cells (HRMVEC); test: Cell adhesion to immobilized collagen RGD peptides; assay type: cell-based; settings: peptide immobilized 100 μg/ml
Protocol: as §5

[6] = test system: human umbilical vein endothelial cell (HUVEC); test: Cell adhesion to immobilized collagen RGD peptides; assay type: cell-based; settings: peptide immobilized 100 μg/ml; FIG. 1A
Protocol: as §5

human dermal fibroblasts = test: Cell adhesion to immobilized collagen RGD peptides; assay type: cell-based; settings: peptide immobilized 100 μg/ml
Protocol: as §5

[7] = biological target: Denatured collagen (collagen type-I boiled 15 minutes) (UniProt P02452); test: integrin blocking ELISA; denatured collagen wells pre-treated with anti-HU177 (0.1 µg/ml); competitor α10β1 (2.0 µg/ml)
[8] = biological target: Denatured collagen (collagen type-I boiled 15 minutes) (UniProt P02452); test: cell-based or functional assay
[9] = biological target: Denatured collagen (collagen type-I boiled 15 minutes) (UniProt P02452); test: integrin blocking ELISA; denatured collagen wells pre-treated with anti-HU177 (0.1 µg/ml); competitor α2β1 (2.0 µg/ml)
[10] = biological target: T2, integrin αvβ3 on cells (HUVEC endothelial cells, M21 melanoma cells, human T-cells) (human, UniProt P06756 31-1048; P05106 27-788); test: HUVEC adhesion to immobilized peptides with function blocking anti-integrin antibodies
T2 construct: whole, on cells; Endogenous receptor on the cells used in adhesion and signalling assays; also called β3 integrin
T2 sequence (P06756 31-1048, chain 1 of 2): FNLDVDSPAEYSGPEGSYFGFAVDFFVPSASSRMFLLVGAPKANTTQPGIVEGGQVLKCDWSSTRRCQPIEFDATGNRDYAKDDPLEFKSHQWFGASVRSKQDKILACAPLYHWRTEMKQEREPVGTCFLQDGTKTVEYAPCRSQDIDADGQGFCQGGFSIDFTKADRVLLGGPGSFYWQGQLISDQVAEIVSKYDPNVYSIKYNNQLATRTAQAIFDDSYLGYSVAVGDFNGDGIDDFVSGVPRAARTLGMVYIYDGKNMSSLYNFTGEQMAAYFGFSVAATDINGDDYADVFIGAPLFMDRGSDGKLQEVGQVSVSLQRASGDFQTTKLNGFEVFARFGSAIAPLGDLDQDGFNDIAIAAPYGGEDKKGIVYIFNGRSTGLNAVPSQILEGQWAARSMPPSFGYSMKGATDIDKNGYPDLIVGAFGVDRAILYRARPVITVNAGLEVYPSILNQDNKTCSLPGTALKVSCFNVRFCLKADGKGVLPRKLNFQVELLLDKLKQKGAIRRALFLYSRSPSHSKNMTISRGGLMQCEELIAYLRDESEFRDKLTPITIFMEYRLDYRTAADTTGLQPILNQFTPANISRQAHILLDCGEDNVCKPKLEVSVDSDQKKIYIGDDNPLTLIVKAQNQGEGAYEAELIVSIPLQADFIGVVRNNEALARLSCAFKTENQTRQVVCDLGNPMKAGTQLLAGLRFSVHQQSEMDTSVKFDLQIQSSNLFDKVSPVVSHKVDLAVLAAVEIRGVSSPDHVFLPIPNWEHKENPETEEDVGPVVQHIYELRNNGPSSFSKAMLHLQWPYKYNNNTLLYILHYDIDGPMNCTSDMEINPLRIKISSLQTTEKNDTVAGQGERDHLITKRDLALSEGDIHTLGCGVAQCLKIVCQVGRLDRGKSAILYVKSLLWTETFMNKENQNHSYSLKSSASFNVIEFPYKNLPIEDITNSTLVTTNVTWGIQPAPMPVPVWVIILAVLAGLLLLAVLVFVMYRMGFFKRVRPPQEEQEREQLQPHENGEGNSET
T2 sequence (P05106 27-788, chain 2 of 2): as the sequence (P05106 27-788) above
Protocol: as §5, with “µg/ml)” for “μg/ml)”, “µg/ml).” for “μg/ml).”
Example 8: Collagen Peptide P-2 Binds and Activates αvβ3 and Stimulates P38MAPK Activation in a Src Dependent Manner It is well established that multiple integrins recognize RGD amino acid motifs within ECM proteins. However, the ability of an integrin to bind distinct RGD epitopes depends in part on its orientation within the parent molecule and the C-terminal amino acid sequences flanking the RGD motif (25-27). Potential cell surface receptors that mediate interactions with the RGDKGE (SEQ ID NO: 1) containing collagen P-2 peptide were identified. The ability of endothelial cells to bind the RGD collagen peptides P-1 and P-2 in the presence or absence of function blocking anti-integrin antibodies was examined.

[11] = biological target: T3, integrin αvβ3 (recombinant) (UniProt P06756 31-992; P05106 27-718); test: solid-phase binding assay, integrin on immobilized PGF peptide (100 ug/ml)
T3 construct: Bought recombinant integrin; also called recombinant integrin receptor αvβ3
T3 sequence (P06756 31-992 limits assumed, chain 1 of 2): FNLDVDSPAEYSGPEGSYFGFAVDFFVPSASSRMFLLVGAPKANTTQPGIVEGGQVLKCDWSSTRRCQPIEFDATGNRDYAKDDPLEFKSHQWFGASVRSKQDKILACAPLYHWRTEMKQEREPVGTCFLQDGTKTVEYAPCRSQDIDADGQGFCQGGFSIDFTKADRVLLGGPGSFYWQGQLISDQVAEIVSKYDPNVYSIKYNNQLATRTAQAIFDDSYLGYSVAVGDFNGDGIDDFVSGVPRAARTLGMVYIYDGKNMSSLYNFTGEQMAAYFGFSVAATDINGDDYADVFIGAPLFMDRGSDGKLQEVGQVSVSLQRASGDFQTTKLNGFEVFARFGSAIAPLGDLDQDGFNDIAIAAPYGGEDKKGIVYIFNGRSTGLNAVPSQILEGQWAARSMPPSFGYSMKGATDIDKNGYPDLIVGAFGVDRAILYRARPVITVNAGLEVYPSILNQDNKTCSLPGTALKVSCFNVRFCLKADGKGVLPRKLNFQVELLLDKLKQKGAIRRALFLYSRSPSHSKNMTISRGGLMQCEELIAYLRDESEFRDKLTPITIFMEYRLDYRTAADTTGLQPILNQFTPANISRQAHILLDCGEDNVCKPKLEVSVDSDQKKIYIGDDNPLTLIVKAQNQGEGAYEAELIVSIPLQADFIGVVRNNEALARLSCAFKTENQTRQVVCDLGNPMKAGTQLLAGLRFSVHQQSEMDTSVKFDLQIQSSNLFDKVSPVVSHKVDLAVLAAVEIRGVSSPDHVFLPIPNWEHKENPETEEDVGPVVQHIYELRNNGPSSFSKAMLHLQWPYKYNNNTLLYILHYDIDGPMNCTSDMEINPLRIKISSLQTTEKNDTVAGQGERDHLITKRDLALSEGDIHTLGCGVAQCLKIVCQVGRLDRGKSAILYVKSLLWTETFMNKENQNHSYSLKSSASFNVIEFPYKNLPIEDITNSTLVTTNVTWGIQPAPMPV
T3 sequence (P05106 27-718 limits assumed, chain 2 of 2): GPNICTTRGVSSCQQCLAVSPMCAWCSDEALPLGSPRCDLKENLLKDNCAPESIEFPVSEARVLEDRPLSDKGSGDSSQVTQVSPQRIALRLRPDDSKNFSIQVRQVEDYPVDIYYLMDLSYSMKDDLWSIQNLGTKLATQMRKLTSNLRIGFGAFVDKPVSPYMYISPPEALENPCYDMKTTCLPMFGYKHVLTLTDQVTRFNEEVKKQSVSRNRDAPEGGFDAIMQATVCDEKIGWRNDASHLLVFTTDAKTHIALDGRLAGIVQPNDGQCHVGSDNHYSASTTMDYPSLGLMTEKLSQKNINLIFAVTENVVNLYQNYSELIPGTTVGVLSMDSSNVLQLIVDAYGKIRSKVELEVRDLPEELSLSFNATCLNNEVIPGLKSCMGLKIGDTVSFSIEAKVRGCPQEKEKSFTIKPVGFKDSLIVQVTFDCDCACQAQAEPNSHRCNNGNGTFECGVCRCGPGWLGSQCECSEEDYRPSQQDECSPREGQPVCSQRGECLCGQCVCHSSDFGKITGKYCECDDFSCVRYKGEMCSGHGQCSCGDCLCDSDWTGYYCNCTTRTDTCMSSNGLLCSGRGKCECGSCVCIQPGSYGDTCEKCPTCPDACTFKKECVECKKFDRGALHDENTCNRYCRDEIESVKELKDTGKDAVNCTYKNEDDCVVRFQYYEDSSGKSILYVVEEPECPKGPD
Protocol: Plates were coated with 25 µg/ml of native or denatured (boiled 15 minutes) collagen. Collagen epitope peptide PGF and Cont-peptides were immobilized at 100 ug/ml. Integrins (0-2.0 µg/ml) were diluted in binding buffer containing 20 mM Tris, 15 mM NaCl, 1 mM MgCl2, 0.2 mM MnCl2, 0.5% BSA pH 7.4 as described (13). Integrins were allowed to bind for 1 hr and plates washed and incubated with anti-integrin antibodies (1:100 dilution) for 1 hr. Plates were washed and incubated with HRP-labeled secondary antibodies (1:5000 dilution). In a second assay, integrins (0.5 µg/ml) were coated in binding buffer and plates were washed, blocked as before and denatured (boiled 15 minutes) collagen was added (0-10.0 µg/ml). Denatured collagen was detected with anti-collagen antibody (1:1000). For integrin blocking ELISAs, wells were coated with denatured collagen and pre-treated (0.1 µg/ml) with anti-HU177 or control antibody. Following washing, wells were incubated with integrins (2.0 µg/ml) and binding was detected as described. Assays were carried out at least 3 times.

Oc1ccc(-c2nc(-c3ccncc3)c(-c3ccc(F)cc3)[nH]2)cc1 [P38MAPK inhibitor, SB202190, reference compound]
reduction of nuclear YAP accumulation following P-2 stimulation (YAP): approximately 50%
effect on P-2 induced angiogenesis in vivo ([1]; SB202190 10 μM, FIG. 6F): reduced

CC(C)(C)n1nc(-c2ccc(Cl)cc2)c2c(N)ncnc21 [Src inhibitor, PP2, reference compound]
β3 phosphorylation following binding to collagen peptide P-2 (β3-integrin): reduced
reduction of nuclear YAP accumulation following P-2 stimulation (YAP): approximately 50%
P38MAPK phosphorylation following binding to collagen peptide P-2 (P38MAPK): reduced

CKGDRGDAPGC [Mab P-1, RGDAPG containing collagen type-I peptide (…) with flanking cysteines]
HRMVEC growth with soluble peptide (HRMVEC): minimal effect
HUVEC growth with soluble peptide (HUVEC): minimal effect
growth of control transduced endothelial cells with soluble peptide [2]: not
CAM inflammation following stimulation with peptide [3]: Minimal evidence of tissue inflammation
induction of CAM angiogenesis as compared to no treatment [1]: not
Fak phosphorylation following ligation of peptide (Fak): Minimal Fak phosphorylation

CQGPSGAPGEC [P-C, control peptide lacking the RGD tri-peptide motif, reference compound]
HMVEC adhesion to immobilized peptide [4]: failed to support interactions
HRMVEC adhesion to immobilized peptide [5]: failed to support interactions
HUVEC adhesion to immobilized peptide [6]: failed to support adhesion
human dermal fibroblast adhesion to immobilized peptide (human dermal fibroblasts): failed to support interactions
CAM inflammation following stimulation with peptide [3]: Minimal evidence of tissue inflammation
induction of CAM angiogenesis as compared to no treatment [1]: not

Mab HU177 (antibody)
percent inhibition of α10β1 binding to denatured collagen [7]: 60%
basal migration of SKOV-3 cells and fibroblasts on denatured collagen [8]: 35 to 38%
decrease in SKOV-3 cell adhesion to denatured collagen [8]: 40%
decrease in fibroblast adhesion to denatured collagen [8]: 50%
percent inhibition of α2β1 binding to denatured collagen [9]: 30%

CKGDRGDAPGC [Synthetic collagen RGD containing peptide P-1 (CKGDRGDAPGC)]
binding result [10]: binds

CPGFPGFC [Collagen PGF-peptide (CPGFPGFC), synthetic HU177 epitope]
binding result [11]: no binding
